Experimental data reported in US6458788B1, “4-hydroxycinnoline-3-carboxyamides as antiviral agents” (Pharmacia & Upjohn Company, priority 2000, dated 2002).

Legend:
HCMV polymerase = biological target: T1, HCMV polymerase (Human cytomegalovirus, UniProt P08546); test: HCMV polymerase scintillation proximity assay (modified version); assay type: biochemical; conditions: at a concentration of 20 μM; read-out: percent inhibition of the viral polymerase, HCMV
T1 construct: made in house; host or cells: recombinant baculovirus-infected SF-9 cells
Description: The HCMV polymerase assay is performed using a scintillation proximity assay (SPA) as described in several references, such as N. D. Cook, et al., Pharmaceutical Manufacturing International, pages 49-53 (1992); K. Takeuchi, Laboratory Practice, September issue (1992); U.S. Pat. No. 4,568,649 (1986); which are incorporated by reference herein. Reactions are performed in 96-well plates. The assay is conducted in 100 μl volume with 5.4 mM HEPES (pH 7.5), 11.7 mM KCl, 4.5 mM MgCl2, 0.36 mg/ml BSA, and 90 nM ^3H-dTTP. Assays are run with and without CHAPS, (3-[(3-cholamidopropyl)-dimethylammonio]-1-propane-sulfonate) at a final concentration of 2 mM. HCMV polymerase is diluted in enzyme dilution buffer containing 50% glycerol, 250 mM NaCl, 10 mM HEPES (pH 7.5), 100 μg/ml BSA, and 0.01% sodium azide. The HCMV polymerase, which is expressed in recombinant baculovirus-infected SF-9 cells and purified according to literature procedures, is added at 10% (or 10 μl) of the final reaction volume, i.e., 100 μl. Compounds are diluted in 50% DMSO and 10 μl are added to each well. Control wells contain an equivalent concentration of DMSO. Unless noted otherwise, reactions are initiated via the addition of 6 nM biotinylated poly(dA)-oligo(dT) template/primer to reaction mixtures containing the enzyme, substrate, and compounds of interest. Plates are incubated in a 25° C. or 37° C. H2O bath and terminated via the addition of 40 μl/reaction of 0.5 M EDTA (pH 8) per well. Reactions are terminated within the time-frame during which substrate incorporation is linear and varied depending upon the enzyme and conditions used, i.e., 30 min. for HCMV polymerase. Ten μl of streptavidin-SPA beads (20 mg/ml in PBS/10% glycerol) are added following termination of the reaction. Plates are incubated 10 min. at 37° C., then equilibrated to room temperature, and counted on a Packard Topcount. Linear regressions are performed and IC50's are calculated using computer software.
A modified version of the above HCMV polymerase assay is performed as described above, but with the following changes: Compounds are diluted in 100% DMSO until final dilution into assay buffer. In the previous assay, compounds are diluted in 50% DMSO. 4.5 mM dithiotherotol (DTT) is added to the polymerase buffer. […] All results are listed as the percent inhibition of the viral polymerase at a concentration of 20 μM. In Table 1, the term “nd” refers to activity data not determined.

VZV polymerase = VZV polymerase (Varicella-zoster virus, UniProt P09252); test: VZV polymerase assay (Table 1, viral polymerase inhibition); assay type: biochemical; conditions: at a concentration of 20 μM; read-out: percent inhibition of the viral polymerase, VZV
Description: The HCMV polymerase assay is performed using a scintillation proximity assay (SPA) as described in several references, such as N. D. Cook, et al., Pharmaceutical Manufacturing International, pages 49-53 (1992); K. Takeuchi, Laboratory Practice, September issue (1992); U.S. Pat. No. 4,568,649 (1986); which are incorporated by reference herein. Reactions are performed in 96-well plates. The assay is conducted in 100 μl volume with 5.4 mM HEPES (pH 7.5), 11.7 mM KCl, 4.5 mM MgCl2, 0.36 mg/ml BSA, and 90 nM ^3H-dTTP. Assays are run with and without CHAPS, (3-[(3-cholamidopropyl)-dimethylammonio]-1-propane-sulfonate) at a final concentration of 2 mM. HCMV polymerase is diluted in enzyme dilution buffer containing 50% glycerol, 250 mM NaCl, 10 mM HEPES (pH 7.5), 100 μg/ml BSA, and 0.01% sodium azide. […] Plates are incubated 10 min. at 37° C., then equilibrated to room temperature, and counted on a Packard Topcount. Linear regressions are performed and IC50's are calculated using computer software.
A modified version of the above HCMV polymerase assay is performed as described above, but with the following changes: Compounds are diluted in 100% DMSO until final dilution into assay buffer. […] In Table 1, the term “nd” refers to activity data not determined.

HSV polymerase = HSV polymerase (Human herpesvirus 1, UniProt P04293); test: HSV polymerase assay (Table 1, viral polymerase inhibition); assay type: biochemical; conditions: at a concentration of 20 μM; read-out: percent inhibition of the viral polymerase, HSV
HSV polymerase, sequence (P04293 whole entry): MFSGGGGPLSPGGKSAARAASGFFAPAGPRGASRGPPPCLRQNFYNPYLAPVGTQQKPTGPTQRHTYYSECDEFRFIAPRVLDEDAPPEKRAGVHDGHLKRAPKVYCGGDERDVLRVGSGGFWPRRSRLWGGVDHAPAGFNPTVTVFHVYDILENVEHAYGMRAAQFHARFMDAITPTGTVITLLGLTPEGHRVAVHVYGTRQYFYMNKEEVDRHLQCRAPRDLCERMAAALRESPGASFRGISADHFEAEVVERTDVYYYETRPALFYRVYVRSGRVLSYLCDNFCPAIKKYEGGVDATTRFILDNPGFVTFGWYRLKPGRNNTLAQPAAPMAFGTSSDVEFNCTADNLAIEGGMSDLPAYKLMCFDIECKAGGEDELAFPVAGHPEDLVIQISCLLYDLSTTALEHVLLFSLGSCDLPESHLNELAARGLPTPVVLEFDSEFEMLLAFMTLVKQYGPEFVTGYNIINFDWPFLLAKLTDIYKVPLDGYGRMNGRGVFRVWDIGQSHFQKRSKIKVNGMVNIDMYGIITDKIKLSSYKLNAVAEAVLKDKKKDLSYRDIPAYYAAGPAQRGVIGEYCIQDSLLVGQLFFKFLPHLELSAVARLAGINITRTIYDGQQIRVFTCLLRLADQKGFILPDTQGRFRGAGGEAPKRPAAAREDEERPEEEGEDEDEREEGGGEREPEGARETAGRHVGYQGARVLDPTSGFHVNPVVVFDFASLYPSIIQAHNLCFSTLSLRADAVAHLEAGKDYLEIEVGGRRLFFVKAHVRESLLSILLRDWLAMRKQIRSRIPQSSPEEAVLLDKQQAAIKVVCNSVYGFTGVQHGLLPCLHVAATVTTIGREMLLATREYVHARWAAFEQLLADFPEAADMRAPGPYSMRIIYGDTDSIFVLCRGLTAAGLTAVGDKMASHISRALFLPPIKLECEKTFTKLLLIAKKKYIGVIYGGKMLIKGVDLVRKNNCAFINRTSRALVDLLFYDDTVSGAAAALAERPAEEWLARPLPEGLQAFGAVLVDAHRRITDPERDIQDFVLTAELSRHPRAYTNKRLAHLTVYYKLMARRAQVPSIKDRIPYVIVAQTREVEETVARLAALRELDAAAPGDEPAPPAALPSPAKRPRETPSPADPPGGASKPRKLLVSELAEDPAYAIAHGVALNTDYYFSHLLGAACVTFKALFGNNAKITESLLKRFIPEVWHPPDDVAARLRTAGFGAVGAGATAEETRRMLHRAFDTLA

T1 sequence (P08546 whole entry): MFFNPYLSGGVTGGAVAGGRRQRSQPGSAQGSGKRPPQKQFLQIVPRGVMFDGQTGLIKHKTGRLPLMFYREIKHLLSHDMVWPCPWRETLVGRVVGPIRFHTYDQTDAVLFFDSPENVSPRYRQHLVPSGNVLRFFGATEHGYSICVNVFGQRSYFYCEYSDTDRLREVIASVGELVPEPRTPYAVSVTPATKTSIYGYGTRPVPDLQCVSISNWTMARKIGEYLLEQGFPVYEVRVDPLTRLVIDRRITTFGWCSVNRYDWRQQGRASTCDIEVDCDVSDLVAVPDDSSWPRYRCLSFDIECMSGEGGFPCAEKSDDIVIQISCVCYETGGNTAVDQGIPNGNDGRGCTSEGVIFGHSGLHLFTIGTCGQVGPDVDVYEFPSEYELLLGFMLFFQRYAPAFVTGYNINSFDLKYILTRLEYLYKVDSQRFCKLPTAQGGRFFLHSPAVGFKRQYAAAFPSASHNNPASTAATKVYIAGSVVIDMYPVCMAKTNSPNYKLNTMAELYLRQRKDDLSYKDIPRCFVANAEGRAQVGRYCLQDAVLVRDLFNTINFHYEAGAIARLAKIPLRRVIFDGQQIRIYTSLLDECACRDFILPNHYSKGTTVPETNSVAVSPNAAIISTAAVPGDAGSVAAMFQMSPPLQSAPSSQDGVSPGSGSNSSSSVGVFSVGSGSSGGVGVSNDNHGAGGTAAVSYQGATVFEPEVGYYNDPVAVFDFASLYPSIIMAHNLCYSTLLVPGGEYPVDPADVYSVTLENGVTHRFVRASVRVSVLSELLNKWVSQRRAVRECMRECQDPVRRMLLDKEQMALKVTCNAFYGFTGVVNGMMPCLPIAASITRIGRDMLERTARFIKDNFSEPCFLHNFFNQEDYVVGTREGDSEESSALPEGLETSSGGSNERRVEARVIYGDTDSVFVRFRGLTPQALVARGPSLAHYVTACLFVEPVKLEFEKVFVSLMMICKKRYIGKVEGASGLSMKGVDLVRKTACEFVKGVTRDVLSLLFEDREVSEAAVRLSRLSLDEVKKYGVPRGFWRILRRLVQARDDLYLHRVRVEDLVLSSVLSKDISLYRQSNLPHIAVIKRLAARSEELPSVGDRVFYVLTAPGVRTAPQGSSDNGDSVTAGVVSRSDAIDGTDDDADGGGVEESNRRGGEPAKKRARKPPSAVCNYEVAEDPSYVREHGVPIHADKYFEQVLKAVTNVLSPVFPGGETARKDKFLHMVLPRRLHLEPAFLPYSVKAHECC
VZV polymerase, sequence (P09252 whole entry): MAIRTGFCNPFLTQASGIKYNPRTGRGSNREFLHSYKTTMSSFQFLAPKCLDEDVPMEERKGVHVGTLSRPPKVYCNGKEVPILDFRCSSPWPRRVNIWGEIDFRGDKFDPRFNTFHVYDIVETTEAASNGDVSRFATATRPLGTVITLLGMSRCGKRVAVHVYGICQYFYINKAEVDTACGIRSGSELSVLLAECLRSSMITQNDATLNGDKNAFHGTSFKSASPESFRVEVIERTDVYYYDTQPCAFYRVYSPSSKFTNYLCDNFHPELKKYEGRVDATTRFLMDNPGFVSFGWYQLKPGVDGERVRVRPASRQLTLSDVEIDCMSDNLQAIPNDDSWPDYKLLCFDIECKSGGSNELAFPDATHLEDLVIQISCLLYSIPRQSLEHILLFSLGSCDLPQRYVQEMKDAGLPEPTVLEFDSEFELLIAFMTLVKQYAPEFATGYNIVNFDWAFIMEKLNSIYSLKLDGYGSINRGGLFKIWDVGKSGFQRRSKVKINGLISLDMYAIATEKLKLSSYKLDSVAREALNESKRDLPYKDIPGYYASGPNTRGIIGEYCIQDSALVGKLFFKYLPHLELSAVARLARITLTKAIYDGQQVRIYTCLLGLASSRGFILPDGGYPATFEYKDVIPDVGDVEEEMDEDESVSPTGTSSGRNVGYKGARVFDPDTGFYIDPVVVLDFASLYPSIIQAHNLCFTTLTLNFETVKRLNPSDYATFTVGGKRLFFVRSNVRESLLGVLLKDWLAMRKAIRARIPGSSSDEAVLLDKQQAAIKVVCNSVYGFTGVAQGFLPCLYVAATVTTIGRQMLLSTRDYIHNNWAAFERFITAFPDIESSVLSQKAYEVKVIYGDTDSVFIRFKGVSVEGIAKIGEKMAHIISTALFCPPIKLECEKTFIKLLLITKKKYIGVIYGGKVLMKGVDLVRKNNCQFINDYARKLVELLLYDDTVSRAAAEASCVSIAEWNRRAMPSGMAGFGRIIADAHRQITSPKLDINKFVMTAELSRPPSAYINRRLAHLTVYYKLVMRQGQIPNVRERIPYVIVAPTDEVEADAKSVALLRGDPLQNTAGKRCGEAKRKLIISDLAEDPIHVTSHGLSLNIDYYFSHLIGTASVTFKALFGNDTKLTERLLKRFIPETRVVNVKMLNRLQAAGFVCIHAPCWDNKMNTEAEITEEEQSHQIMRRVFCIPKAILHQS

O=C(NCc1ccc(Cl)cc1)c1nnc2ccc(CO)cc2c1O [Example 4, N-(4-chlorobenzyl)-4-hydroxy-6-(hydroxymethyl)-3-cinnolinecarboxamide]
melting point: 296 to 298 °C | inhibition at 20 µM (HCMV polymerase): 51%

O=C(NCc1ccc(Cl)cc1)c1nnc2ccc(CN3CCOCC3)cc2c1O [Example 5, N-(4-chlorobenzyl)-4-hydroxy-6-(morpholinylmethyl)-3-cinnolinecarboxylate]
melting point: 277 to 280 °C (dec.)

O=C(NCc1ccc(Cl)cc1)c1n[nH]c2ccccc2c1=O [Comp. 1, N-(4-chlorobenzyl)-4-oxo-1,4-dihydro-3-cinnolinecarboxamide]
melting point: 269 to 271 °C | inhibition at 20 µM (HCMV polymerase): 90% | inhibition at 20 µM (VZV polymerase): 10.1% | inhibition at 20 µM (HSV polymerase): 20.8%

COC(=O)c1ccc2nnc(C(=O)NCc3ccc(Cl)cc3)c(O)c2c1 [Example 3, Methyl 3-{[(4-chlorobenzyl)amino]carbonyl]-4-hydroxy-6-cinnolinecarboxylate]
melting point: 308 to 310 °C | inhibition at 20 µM (HCMV polymerase): 50%

O=C(NCc1ccc(Cl)cc1)c1nnc2ccc(I)cc2c1O [Comp. 2, N-(4-chlorobenzyl)-4-hydroxy-6-iodo-3-cinnolinecarboxamide]
melting point: 307 to 308 °C | inhibition at 20 µM (HCMV polymerase): > 100%
